Patent US20240131168A1, “NAPHTHALENE RING-CONTAINING COMPOUND, PHARMACEUTICAL COMPOSITION CONTAINING SAME, AND USE THEREOF” (JIANGSU YAHONG MEDITECH CO., LTD., priority 2021, published 2024)
Like-named read-outs stand apart in the source and are kept apart here.

Assays:
Format in all cases: cell-based
[1] = system: MDA-MB-231; assay: CellTiter-Glo cell proliferation inhibition, MDA-MB-231; conditions: Homo sapiens, MDA-MB-231 (CTG), starting concentration 10 μM; for inhibition at up to 10 µM: read-out: IH % max (maximum inhibition percentage)
Excerpt: (§1) 1. Cell line • (1) Breast cancer cell lines and their culture media: • MCF-7 (ATCC; Cat. No.: HTB-22), a Luminal A breast cancer cell; • TamR-MCF-7 (ATCC; Cat. No.: CRL-3435), a breast cancer cell; • MCF-7 ER^D538G: a Luminal A breast cancer cell obtained by constructing MCF-7 (ATCC; Cat. No.: HTB-22) using CRISPR-Cas9 gene editing technology; • MCF-7 ER^Y537S: a Luminal A breast cancer cell obtained by constructing MCF-7 (ATCC; Cat. No.: HTB-22) using CRISPR-Cas9 gene editing technology; • MDA-MB-231: (manufacturer: Nanjing CoBioer Biosciences Co., Ltd.), a triple-negative breast cancer cell; • MDA-MB-468: (manufacturer: Nanjing CoBioer Biosciences Co., Ltd.), a triple-negative breast cancer cell.
(§2) Herein, the culture medium of MCF-7, TamR-MCF-7, MCF-7 ER^D538G, and MCF-7 ER^Y537S was EMEM; • the culture medium of MDA-MB-231 and MDA-MB-468 was DMEM.
(§3) 2. Reagents • Culture medium EMEM (Gibco, 1964507) • Culture medium DMEM (Gibco, 12430-054) • Fetal bovine serum (Gibco, 10091148) • Penicillin-streptomycin double antibody (Gibco, S110JV) • DPBS (Gibco, 14190-144) • CellTiter-Glo® assay kit (Promega, G7573) • Trypsin (0.25%) (Gibco, 25200-056) • DMSO (Sigma, D2650)
(§4) 3. Instruments • Biosafety cabinet (AIRTECH, BSC-1300A II) • Automated cell counter (Life Technologies, countess II) • Multifunctional microplate reader (Biotek, H1FM) • Orbital shaker (Hangzhou Allsheng Instruments Co., Ltd., OS-100) • XLFIT 5.3 (Inforstack Shanghai Co., Ltd.)
(§5) For this test method, the following experiments were performed in a biosafety cabinet, with the specific steps as follows: • (1) Cells were inoculated in a 96-well plate. One day later, the previous culture medium was poured off, 5 mL of DPBS was added to wash the cells, and then DPBS was pipetted and discarded. An appropriate amount of trypsin was then added. The plate was digested in a 37° C., 5% CO2 cell incubator for about 2 to 5 minutes and then taken out. Anew corresponding culture medium was added, and pipetted up and down to resuspend the cells evenly. The cells were then counted using an automated cell counter. • (2) Each cell was inoculated in columns 1 to 11 of a 96-well plate (Corning, Cat. No.: 3610) at a density of 1,000 or 2,000 cells per well in 100 μL of culture medium, and 100 μL of the corresponding culture medium without cells was added to the wells in column 12. The plate was then placed in a 37° C., 5% CO2 incubator for 24 hours. • (3) The compound of the present disclosure and the control drug fulvestrant (Selleck; Cat. No.: S1191) were then 4-fold serially diluted to 10 dose points starting at 10 μM. 10 μL of the serially diluted compound was pipetted and added to 100 μL of cells in columns 1 to 10, and 10 μL of the corresponding culture medium containing 0.33 v % DMSO was added to both columns 11 and 12. The plate was incubated in a 37° C., 5% CO2 incubator for 6 days or 72 hours (Note: column 11 was used as a MAX well with cells but without compound; column 12 was used as a MIN well without cells […]). • (4) The cell viability detection reagent in the CellTiter-Glo® assay kit was then added to the 96-well plate at 50 μL per well according to the instructions, and shaken on an orbital shaker in the dark for 5 to 10 minutes. The cell viability was then measured using a multifunctional microplate reader. Finally, the inhibition of cell proliferation by the compound of the present disclosure was plotted by XLFIT software, and the IC50 value (half inhibitory concentration) and the IH % max (maximum inhibition percentage) of the compound of the present disclosure were calculated.
(§6) Compounds D64 to D69 were tested for MDA-MB-231 (CTG) and MDA-MB-468 (CTG) with an incubation time of 72 hours in the incubator.

[2] = system: MDA-MB-468; assay: CellTiter-Glo cell proliferation inhibition, MDA-MB-468; conditions: Homo sapiens, MDA-MB-468 (CTG), starting concentration 10 μM; for inhibition at up to 10 µM: read-out: IH % max (maximum inhibition percentage)
Excerpt: as §1, §2, §3, §4, §5, §6

[3] = system: MCF-7 ER^Y537S; assay: CellTiter-Glo cell proliferation inhibition, MCF-7 ER^Y537S; conditions: Homo sapiens, MCF7, 144 h; MCF-7 ER^Y537S (CTG), 6 days, starting concentration 10 μM; read-out: IH % max (maximum inhibition percentage)
Excerpt: as §1, §2, §3, §4, §5

[4] = system: MCF-7 ER^D538G; assay: CellTiter-Glo cell proliferation inhibition, MCF-7 ER^D538G; conditions: Homo sapiens, MCF7, 144 h, MCF-7 ER^D538G (CTG), 6 days, starting concentration 10 μM; for inhibition at up to 10 µM: read-out: IH % max (maximum inhibition percentage)
Excerpt: as §1, §2, §3, §4, §5

[5] = system: MCF-7; assay: CellTiter-Glo cell proliferation inhibition, MCF-7 (Effect Example 2); conditions: Homo sapiens, MCF7, 144 h; MCF-7 (CTG), 6 days, starting concentration 10 μM; read-out: IH % max (maximum inhibition percentage)
Excerpt: as §1, §2, §3, §4, §5

[6] = system: TamR-MCF-7; assay: CellTiter-Glo cell proliferation inhibition, TamR-MCF-7; conditions: 144 h; TamR-MCF-7 (CTG), 6 days, starting concentration 10 μM; read-out: IH % max (maximum inhibition percentage)
Excerpt: as §1, §2, §3, §4, §5

[7] = incubation time 72 hours (D64 to D69)

SMILES	IC50 [1, 7]	inhibition at up to 10 µM [1, 7]	IC50 [2, 7]	inhibition at up to 10 µM [2, 7]	inhibition at up to 10 µM [3]	IC50 [4]	inhibition at up to 10 µM [4]	inhibition at up to 10 µM [5]	inhibition at up to 10 µM [6]	inhibition at up to 10 µM ([2]; 144 h, 6 days)	inhibition at up to 10 µM ([1]; 144 h, 6 days)
CS(=O)(=O)c1ccc(-c2ccc3ccccc3c2Oc2ccc(OC(=O)N3CCN(c4ccc5c(c4)CN(C4CCC(=O)NC4=O)C5=O)CC3)cc2)cc1 (stereo not shown) [Compound D66, 4-((2-(4-(methylsulfonyl)phenyl)naphthalen-1-yl)oxy)phenyl 4-(2-(2,6-dioxopiperidin-3-yl)-1-oxoisoindolin-5-yl)piperazine-1-carboxylate]	1.4 nM	85.4%	2.2 nM	90.6%	–	–	–	–	–	–	–
CCN(CCOCCOCCOCCNc1cccc2c1C(=O)N(C1CCC(=O)NC1=O)C2=O)CCOc1ccc(Oc2c(-c3ccc(S(C)(=O)=O)cc3)ccc3cc(O)ccc23)cc1 (stereo not shown) [Compound D39, 2-(2,6-dioxopiperidin-3-yl)-4-((3-ethyl-1-(4-((6-hydroxy-2-(4-(methylsulfonyl)phenyl)naphthalen-1-yl)oxy)phenoxy)-6,9,12-trioxa-3-azatetradecan-14-yl)amino)isoindoline-1,3-dione]	–	–	–	–	48%	158 nM	73%	35%	32%	51%	–
CNC(=O)c1ccc(-c2ccc3ccccc3c2Oc2ccc(OC(=O)N3CCN(c4ccc5c(c4)CN(C4CCC(=O)NC4=O)C5=O)CC3)cc2)cc1 (stereo not shown) [Compound D69, 4-((2-(4-(methylcarbamoyl)phenyl)naphthalen-1-yl)oxy)phenyl 4-(2-(2,6-dioxopiperidin-3-yl)-1-oxoisoindolin-5-yl)piperazine-1-carboxylate]	2.2 nM	91.7%	2.7 nM	92.8%	–	–	–	–	–	–	–
CN(C)C(=O)c1ccc(-c2ccc3ccccc3c2Oc2ccc(OC(=O)N3CCN(c4ccc5c(c4)CN(C4CCC(=O)NC4=O)C5=O)CC3)cc2)cc1 (stereo not shown) [Compound D67, 4-((2-(4-(dimethylcarbamoyl)phenyl)naphthalen-1-yl)oxy)phenyl 4-(2-(2,6-dioxopiperidin-3-yl)-1-oxoisoindolin-5-yl)piperazine-1-carboxylate]	3.7 nM	79.2%	4.4 nM	83.6%	–	–	–	–	–	–	–
O=C1CCC(N2Cc3cc(N4CCN(CCOc5ccc(Oc6c(-c7ccc(C(=O)N8CCCC8)cc7)ccc7cc(O)ccc67)cc5)CC4)ccc3C2=O)C(=O)N1 (stereo not shown) [Compound D65, 3-(5-(4-(2-(4-((6-hydroxy-2-(4-(pyrrolidine-1-carbonyl)phenyl)naphthalen-1-yl)oxy)phenoxy)ethyl)piperazin-1-yl)-1-oxoisoindolin-2-yl)piperidine-2,6-dione]	3.6 nM	83.6%	29 nM	83.6%	–	–	–	–	–	–	–
CS(=O)(=O)c1ccc(-c2ccc3cc(O)ccc3c2Oc2ccc(N3CCN(CC(=O)N4CCN(c5ccc6c(c5)CN(C5CCC(=O)NC5=O)C6=O)CC4)CC3)cc2)cc1 (stereo not shown) [Compound D12, 3-(5-(4-(2-(4-(4-((6-hydroxy-2-(4-(methylsulfonyl)phenyl)naphthalen-1-yl)oxy)phenyl)piperazin-1-yl)acetyl)piperazin-1-yl)-1-oxoisoindolin-2-yl)piperidine-2,6-dione]	–	–	–	–	–	761 nM	68%	45%	–	–	37%
CCN(CCOCCOCCNc1cccc2c1CN(C1CCC(=O)NC1=O)C2=O)CCOc1ccc(Oc2c(-c3ccc(S(C)(=O)=O)cc3)ccc3cc(O)ccc23)cc1 (stereo not shown) [Compound D26, 3-(4-((2-(2-(2-(ethyl(2-(4-((6-hydroxy-2-(4-(methylsulfonyl)phenyl)naphthalen-1-yl)oxy)phenoxy)ethyl)amino)ethoxy)ethoxy)ethyl)amino)-1-oxoisoindolin-2-yl)piperidine-2,6-dione]	–	–	–	–	43%	–	75%	55%	35%	37%	–
CNC(=O)c1ccc(-c2ccc3cc(O)ccc3c2Oc2ccc(OCCN3CCN(c4ccc5c(c4)CN(C4CCC(=O)NC4=O)C5=O)CC3)cc2)cc1 (stereo not shown) [Compound D64, 4-(1-(4-(2-(4-(2-(2,6-dioxopiperidin-3-yl)-1-oxoisoindolin-5-yl)piperazin-1-yl)ethoxy)phenoxy)-6-hydroxynaphthalen-2-yl)-N-methylbenzamide]	9.8 nM	79.8%	19.3 nM	87%	–	–	–	–	–	–	–
CCN(CCOc1ccc(Oc2c(-c3ccc(S(C)(=O)=O)cc3)ccc3cc(O)ccc23)cc1)CC(=O)N1CCN(c2ccc3c(c2)CN(C2CCC(=O)NC2=O)C3=O)CC1 (stereo not shown) [Compound D7, 3-(5-(4-(N-ethyl-N-(2-(4-((6-hydroxy-2-(4-(methylsulfonyl)phenyl)naphthalen-1-yl)oxy)phenoxy)ethyl)glycyl)piperazin-1-yl)-1-oxoisoindolin-2-yl)piperidine-2,6-dione]	–	–	–	–	60%	–	40%	49%	47%	63%	–
CCN(CCOCCOCCN1CCN(c2cccc3c2CN(C2CCC(=O)NC2=O)C3=O)CC1)CCOc1ccc(Oc2c(-c3ccc(S(C)(=O)=O)cc3)ccc3cc(O)ccc23)cc1 (stereo not shown) [Compound D40]	–	–	–	–	61%	–	72%	34%	31%	71%	–
CN(C)C(=O)c1ccc(-c2ccc3ccccc3c2Oc2ccc(OCCN3CCN(c4ccc5c(c4)CN(C4CCC(=O)NC4=O)C5=O)CC3)cc2)cc1 (stereo not shown) [Compound D68, 4-(1-(4-(2-(4-(2-(2,6-dioxopiperidin-3-yl)-1-oxoisoindolin-5-yl)piperazin-1-yl)ethoxy)phenoxy)naphthalen-2-yl)-N,N-dimethylbenzamide]	44.2 nM	71.5%	35.4 nM	59.3%	–	–	–	–	–	–	–
